We go through three compounds from patent publication US9115153B2, “Aza metal complexes” (Canon Kabushiki Kaisha, priority 2007, dated 2015).

Data set [1] can be described thus: XAFS measurement and analysis (coordination number). Format: physicochemical. The settings on record: for comparison. As to the method: The XAFS analysis of the complex (R)-11 was performed at Spring-8.
Specifically, the number of the coordinated water molecules was estimated by removing background from XAFS spectra and performing fitting using Fourier transformation or Fourier inverse transformation.
Further, the XAFS spectra were obtained by a transmission method using an ion chamber for a pellet (in a powder state) of the complex ((R)-11) and a fluorescence method using a multi-element semiconductor detector for an aqueous solution of the complex ((R)-11), respectively.
When fitting was performed without fixing the proximal coordination number to 9, the following results were obtained. In a powder state, the coordination number of O was 6.99 and the distance between atoms of Gd and O was 2.421 Å, and in an aqueous solution (3 mM) the coordination number of O was 9.77 and the distance between atoms of Gd and O was 2.430 Å.

For data set [2] the following is noted: aqueous solutions of 2.0, 1.0, 0.5 and 0.25 mM, saturation recovery spin echo, 24° C.
A short description of data set [3]: T1 relaxation time measurement by 500 MHz NMR in FBS solution. Format: physicochemical. To be noted: FBS 80%, heavy water 10%, H2O 10%; otherwise as Example 4 / Comparative Example 1 (500 MHz NMR). As to the method:
The T1 time was measured in the same manner as in Example 4 except that the NMR measurement sample was changed to an FBS (fetal bovine serum) solution of the complex (R)-11 (FBS concentration: 80%, heavy water concentration: 10%, H2O concentration: 10%).
The T1 time was measured in the same manner as in Comparative Example 1 except that the NMR measurement sample was changed to an FBS (fetal bovine serum) solution of GdCl3 or Gd (DTPA) (FBS concentration: 80%, heavy water concentration: 10%, H2O concentration: 10%).

Data set [4] is described as follows: T1 relaxation time measurement by 7T MRI (inversion recovery FISP). The format is physicochemical. To be noted: 1.3 mM in ultrapure water, 24° C. As to the method:
The T1 relaxation time measurement by MRI was performed using a 7T MRI apparatus (BioSpec 70/20 manufactured Bruker Biospin K.K.). The T1 relaxation time was measured under the measurement conditions of TR/TE 3/1.5 ms, FOV=8*4 cm, matrix=128*128, NA=2 and a temperature of 24° C. using an inversion recovery FISP method. Aqueous solutions of six different concentrations (1.3 mM, 0.65 mM, 0.325 mM, 0.13 mM, 0.026 mM and 0.013 mM) were prepared by dissolving complex (R)-11 in ultrapure water, and each of the aqueous solutions was placed into an Eppendorf tube and used directly as a measurement sample.
The T1 relaxation time was measured in the same manner as in Example 5. A GdCl3 aqueous solution was prepared by dissolving commercially available GdCl3.6H2O in ultrapure water so that the concentration was adjusted to 1.3 mM, and Gd (DTPA) aqueous solutions were prepared by diluting a commercially available Gd (DTPA) aqueous solution (630 mM) with ultrapure water so that the concentration was adjusted to 2.0, 1.3, 1.0, 0.5 and 0.25 mM, respectively. Each of the aqueous solutions was placed into an Eppendorf tube and used directly as a measurement sample.

The nature of data set [5]: T1 relaxation time measurement by 500 MHz NMR (aqueous solution). The format is physicochemical. The settings on record: 0.13 mM aqueous solution, 10% heavy water, 27° C., inversion recovery. As to the method:
The T1 relaxation time measurement was performed using a broadband probe on a 500 MHz NMR apparatus (Avance 500 manufactured by Bruker Biospin K.K.). The T1 relaxation times were measured at 27° C. using an inversion recovery method.
First, a Gd triamine 2nd G-12-ol-dendrimer complex (R)-11 was dissolved in 1 ml of ultrapure water to prepare an aqueous solution in which the concentration of complex (R)-11 was 24.05 mM. In addition, the concentration of complex (R)-11 was determined from the Gd concentration by inductive coupled plasma emission spectrometry (ICP emission spectrometry). Next, the aqueous solution was diluted with ultrapure water and heavy water so that the concentration of complex (R)-11 was 0.13 mM and the concentration of heavy water was 10%, and the resulting aqueous solution was used as an NMR measurement sample. […] The data shown in FIG. 1 clarified that the T1 time of water of the complex (R)-11 aqueous solution was 429 ms.
The T1 relaxation time was measured in the same manner as in Example 4. […] The T1 relaxation time of water for the Gd (DTPA) aqueous solution sample determined from the data shown in FIG. 2 was 1333 ms, which is considerably longer than the T1 relaxation time of complex (R)-11.

On to `O=C([O-])CN1CCN(CC(=O)[O-])CCN(CC(=O)O)CCN(CC(=O)[O-])CC1.[Gd+3]` [Gd (DOTA), reference compound], for which the “coordination number of water molecule” value in data set [1] amounted to 1.
Turning to `O=C([O-])CN(CCN(CC(=O)[O-])CC(=O)O)CCN(CC(=O)[O-])CC(=O)O.[Gd+3]` [Gd (DTPA)], the “T1 relaxation ability r1” value in data set [2] came out at 4.661 L/mmol/s. The “T1 time of water for FBS solution” value in data set [3] came out at 1429 ms. The compound further gave a T1 in data set [4] of 205.653 ms. In data set [5], the “T1 relaxation time of water” value was 1333 ms. Further, the “coordination number of water molecule” value in data set [1] came out at 1.
Take `[Cl][Gd]([Cl])[Cl]` [GdCl3]: the “T1 time of water for FBS solution” value in data set [3] is 1708 ms. This compound returned a T1 in data set [4] of 58.991 ms. Moreover, the “T1 relaxation time of water” value in data set [5] amounted to 712 ms.
